From US7452479B2, “Chemical base for fuel cell engine heat exchange coolant/antifreeze comprising 1,3-propanediol” (Shell Oil Company, priority 2001, dated 2008)
Where two headings read alike, the source gives them in different places.

Legend:
Physical property data = assay type: physicochemical
ASTM D1177 freeze point = assay type: physicochemical
Text: FIG. 1 illustrates the aqueous solution freeze point characteristics of the 1,3-propanediol and GM 6043 (EG). […] This could be an indication that actual protection against hard, damaging freezing is actually better, approaching the effective protection point of the EG-based product. […] We feel that the antifreeze properties of the chemistry are acceptable. Indeed a 50% solution would provide adequate protection against freezing in most geographies. TC in FIG. 1 is an internal designation for the PDO aqueous solutions at 50, 55, and 60 volume percent PDO.

SMILES	Specific Gravity (Physical property data)	Specific Gravity (Physical property data; 20° C.)	Freeze protection (ASTM D1177 freeze point; 55% in water)	Appearance at the reported freeze point (ASTM D1177 freeze point; aqueous solution)
OCCO [EG, ethylene glycol]	1.115			
OCCCO [PDO, 1,3-propanediol]		1.0526	equivalent to 50% EG	soft and slushy
CC(O)CO (centres unmarked) [PG, propylene glycol]		1.032		
